Measured values from patent US8741886B2, “Baclofen and acamprosate based therapy of neurological disorders” (Pharnext, priority 2011, dated 2014).

Tests used:
rat cortical neurons = experiment: Toxicity of Aβ1-42 in neurite growth model: total length of neurite network; format: cell-based; details: Aβ1-42 2.5 μM; single drugs at the concentrations used in the combination
Method: Rat cortical neurons were cultured as described by Singer et al. (35). Briefly pregnant female rats of 15 days gestation were killed by cervical dislocation (Rats Wistar) and the foetuses were removed from the uterus. The cortex was removed and placed in ice-cold medium of Leibovitz (L15) containing 2% of Penicillin 10.000 U/ml and Streptomycin 10 mg/ml and 1% of bovine serum albumin (BSA). Cortices were dissociated by trypsin for 20 min at 37° C. (0.05%). The reaction was stopped by the addition of Dulbecco's modified Eagle's medium (DMEM) containing DNasel grade II and 10% of foetal calf serum (FCS). Cells were then mechanically dissociated by 3 serial passages through a 10 ml pipette and centrifuged at 515×g for 10 min at +4° C. […] Viable cells were counted in a Neubauer cytometer using the trypan blue exclusion test. […]
After 24 hours of intoxication, the supernatant is taken off and the cortical neurons are fixed by a cold solution of ethanol (95%) and acetic acid (5%) for 5 min. […] Then, cells are incubated with monoclonal antibody anti microtubule-associated-protein 2 (MAP-2; Sigma) or with anti synaptophysin (SYN, S5798, Sigma) together with anti PSD95 (P246, Sigma) antibodies in order to quantify synapses. […]

[1] = system: mice injected i.c.v. with Aβ25-35 peptide; experiment: Spontaneous alternation, Y-maze test, after i.c.v. Aβ25-35; format: in vivo; details: drugs alone: Donepezil 0.25 mg/kg/day, Acamprosate 32 μg/kg/day, Baclofen 480 μg/kg/day
Text: The Y-maze is made of grey polyvinylchloride. Each arm is 40 cm long, 13 cm high, 3 cm wide at the bottom, 10 cm wide at the top, and converging at an equal angle. […] An alternation is defined as entries into all three arms on consecutive occasions.

[2] = system: rat primary cortical cells; experiment: Toxicity of human Aβ1-42 peptide on primary cortical neuron cells: LDH release; format: cell-based; details: for effect on Aβ1-42 intoxication, LDH release (in words): Aβ1-42 10 μM, single drugs at the concentrations used in the combination
Method: Rat cortical neurons were cultured as described by Singer et al. (47). Briefly pregnant female rats of 15 days gestation were killed by cervical dislocation (Rats Wistar) and the foetuses were removed from the uterus. The cortex was removed and placed in ice-cold medium of Leibovitz (L15) containing 2% of Penicillin 10.000 U/ml and Streptomycin 10 mg/ml and 1% of bovine serum albumin (BSA). Cortexes were dissociated by trypsin for 20 min at 37° C. (0.05%). The reaction was stopped by the addition of Dulbecco's modified Eagle's medium (DMEM) containing DNasel grade II and 10% of foetal calf serum (FCS). Cells were then mechanically dissociated by 3 serial passages through a 10 ml pipette and centrifuged at 515×g for 10 min at +4° C. The supernatant was discarded and the pellet of cells was re-suspended in a defined culture medium consisting of Neurobasal supplemented with B27 (2%), L-glutamine (0.2 mM), 2% of PS solution and 10 ng/ml of BDNF. Viable cells were counted in a Neubauer cytometer using the trypan blue exclusion test. The cells were seeded at a density of 30 000 cells/well in 96 well-plates (wells were pre-coated with poly-L-lysine (10 μg/ml)) and were cultured at +37° C. in a humidified air (95%)/CO2 (5%) atmosphere.
Briefly, Aβ1-42 peptide was reconstituted in define culture medium at 40 μM (mother solution) and was slowly shaken at +37° C. for 3 days in dark. The control medium was prepared in the same conditions.
After 10 days of neuron culture, test compounds were solved in culture medium (+0.1% DMSO) and then pre-incubated with neurons for 1 hour before the Aβ1-42 application (in a final volume per culture well of 100 μl). One hour after test compound(s) incubation, 100 μl of Aβ1-42 peptide was added to a final concentration of 10 μM diluted in presence of drug(s), in order to avoid further test compound(s) dilutions. Cortical neurons were intoxicated for 24 hours. Three separate cultures were performed per condition, 6 wells per condition.
BDNF (50 ng/ml) and Estradiol-β (150 nM) were used as positive control and reference compounds respectively. Three separate cultures will be performed per condition, 12 wells per condition.
Estradiol-β at 150 nM was used as a positive control (FIG. 4).
Estradiol-β was solved in culture medium and pre-incubated for 1 h before the amyloid-β1-42 application.
The following conditions were assessed: • CONTROL PLAQUE: 12 wells/condition • Negative Control: medium alone+0.1% DMSO • Intoxication: amyloid-β1-42 (10 μM) for 24 h • Reference compound: Estradiol (150 nM) 1 hr. • DRUG PLATE: 6 wells/condition • Negative Control: medium alone+0.1% DMSO • Intoxication: amyloid-β1-42 (10 μM) for 24 h • Test compound(s): test compound(s)—1 hr followed by amyloid-β1-42 (10 μM) for 24 h Lactate Dehydrogenase (LDH) Activity Assay
24 hours after intoxication, the supernatant was taken off and analyzed with Cytotoxicity Detection Kit (LDH, Roche Applied Science, ref: 11644793001, batch: 11800300). This colorimetric assay for the quantification of cell toxicity is based on the measurement of lactate dehydrogenase (LDH) activity released from the cytosol of dying cells into the supernatant.
Data were expressed in percentage of control conditions (no intoxication, no amyloid=100%) in order to express the amyloid injury. All values were expressed as mean+/−SEM (s.e.mean) of the 3 cultures (n=6 wells per condition). Statistic analyses were done on the different conditions (ONE-WAY ANOVA followed by the Dunnett's test when it was allowed, Statview software version 5.0).

NCC(CC(=O)O)c1ccc(Cl)cc1 (stereo not shown) [Baclofen]
effect on Aβ1-42 intoxication, total length of neurites network (in words) (rat cortical neurons): no significant effect | effect on percentage of alternation (Y-maze), low doses (in words) [1]: no significant effect | effect on Aβ1-42 intoxication, LDH release (in words) [2]: no significant effect

CC(=O)NCCCS(=O)(=O)O [Acamprosate]
effect on Aβ1-42 intoxication, total length of neurites network (in words) (rat cortical neurons): no significant effect | effect on percentage of alternation (Y-maze), low doses (in words) [1]: no significant effect | prevention of Aβ1-42 intoxication by pre-treatment ([2]; 8 nM): 99% | effect on Aβ1-42 intoxication, LDH release (in words) [2]: no significant effect
